Experimental findings from patent US10738061B2, “Inhibitors of RAD52 recombination protein and methods using same” (Drexel University, priority 2015, dated 2020) are described below.

In assay [1] the test system is BRCA1/2-deficient cell lines. Nature of the assay: Growth of BRCA1/2-deficient cell lines (summary over tested lines). It is filed as cell-based, Human. Here is the method:
(§1) BxPC3 cells were kept in RPMI 1640 (ATCC) media supplemented with 10% FBS (Gibco). Capan-1/BxPC3 Capan-1 cells were kept in IMDM (ATCC) media containing 20% FBS (GIBCO). […] cells were kept in 48.5% RPMI1640 (ATCC), 48.5% MEGM (Clonetics/Lonza, MEGM kit, CC-3150) and 3% FBS (GIBCO) respectively. Cells in log-phase were harvested and 100 μl cell suspensions were replated in a 96-well plate with a final density of 4000 cells/well. After overnight growth, cells were treated with indicated concentrations of compounds. Media containing the invariant concentration of compounds were refreshed every 3 days until cells were finally lysed by 30 μl/well of Promega CellTiter-Glo reagents and read on a Promega GloMax 96 reader on day 10 (9 days exposure).
as §1, with “(Gibco);” for “(Gibco). Capan-1/BxPC3”, “(GIBCO);” for “(GIBCO).”, “exposure). Promega CellTiter-Glo protocol is available on the web: www dot promega dot com/resources/protocols/technical-bulletins/0/celltiter-glo-luminescent-cell-viability-assay-protocol/” for “exposure).”
MDA-MB-436 cells were cultured in RPMI+10% FBS. BRCA-proficient and BRCA-deficient cells were plated on day 0 in triplicate at 5,000 cells/well. […] Cells were counted on day 4 on a hemocytometer, using Trypan Blue exclusion, and immediately were plated in a clonogenic assay at a density of 500 cells/well in a 6 well plate, in RPMI+10% FBS. […]

Another assay concerns salmon sperm DNA. The assay can be described thus: Acridine orange displacement assay for DNA binding. Here is the method: The selected compounds were tested their abilities to bind DNA to rule out DNA binding as an undesired mechanism of action. The compounds in varied concentrations were added into 30 μl reaction mixtures containing 50 nM acridine orange and 6 μg/ml salmon sperm DNA, 10 mM HEPES, pH 7.5; 1 mM EDTA pH 7.5; 100 mM NaCl in 384-well plates, and the reactions were incubated at room temperature for 20 min followed by fluorescence polarization measurement using an EnVision (Perkin Elmer) equipped with a 480 nm excitation filter and 535 nm S and P emission filters with a D505 FP/D535 dichroic mirror. Mitoxantrone (10 μM) was used as a positive control. The S and P values are processed with the standard fluorescence polarization calculation formula (mP=1000*(S-G*P)/(S+G*P) where G is the G-factor and is approximately 1.

In assay [2] the test system is BCR-ABL1-positive BRCA1-deficient 32Dc13 murine hematopoietic cell line that expresses GFP-RAD52. Nature of the assay: GFP-RAD52 foci formation in response to cisplatin. It is filed as cell-based. To be noted: compound 2.5 μM. Here is the method: GFP-RAD52 foci formation was measured in BCR-ABL1-positive BRCA1-deficient 32Dc13 murine hematopoietic cell line that expresses GFP-RAD52 (Cramer-Morales et al., 2013, Blood 122, 1293-1304). RAD51 foci formation was measured in parental 32Dc13.
Both cell lines were cultured in IMDM plus 10% FBS. […] After 4 h of incubation, the cells were treated with 3 μg/mL cisplatin for 16 h. Following cisplatin treatment, cytospins were prepared using polylysine coated slides (Thermo Scientific). DNA was counterstained with DAPI. To detect RAD51 foci, cells were stained with an anti-RAD51 antibody (Thermo Scientific), followed by a secondary antibody conjugated with AlexaFluor 594. RAD51 and GFP-RAD52 foci were visualized with an inverted Olympus IX70 fluorescence microscope equipped with a Cooke Sensicam QE camera (The Cooke Co., Auburn Hills, Mich., USA). Images from 25-60 cells/group were processed using SlideBook 3.0 (Intelligent Imaging Innovation).
In response to DNA damage, RAD52 accumulates in the nucleus forming distinct structures known as foci (Essers et al., 2002, EMBO J. 21, 2030-2037; Liu et al., 2000, EMBO Rep 1, 85-90). The foci represent RAD52 complexes with DNA repair intermediates. Inhibitors of RAD52 may decrease RAD52 foci formation by disrupting its interaction with DNA substrates.

For the compound `COc1ccc(OC)c(Nc2nc(NCCCO)c3ccccc3n2)c1` [D-G23, 3-((2-((2,5-dimethoxyphenyl)amino)quinazolin-4-yl)amino)propan-1-ol], in assay [1], the “preferential inhibition of BRCA1/2-deficient cell lines (summary)” value is “preferentially inhibited at least two BRCA1/2-deficient cell lines”. Further, the DNA binding entry with salmon sperm DNA is reported as “did not bind DNA”. Besides, the “fraction of cells with RAD52 foci (>5 foci)” value in assay [2] (cisplatin-treated, without inhibitor 38.7±10%) stood at 19±0.4%. Also, the “fraction of cisplatin-treated cells without foci” value in assay [2] (without inhibitor 48.4±6.2%) came out at 57.6±0.5%.
